The record followed here is patent US8987249B2, “Substituted 2-Aza-bicyclo[2.2.1]heptane-3-carboxylic acid (benzyl-cyano-methyl)-amides inhibitors of Cathepsin C” (Boehringer Ingelheim International GmbH, priority 2013, dated 2015).

As usually defined, the IC50 is the concentration that inhibits the measured activity by half. What is called half-life is the time in which the quantity being followed falls by half.

Structures are written as SMILES.

In series [1] the target is recombinant human DPPI (Cathepsin C) (Homo sapiens (Human), UniProt P53634). Description: Inhibition of human DPPI (Cathepsin C). The class given is biochemical. The following applies: substrate Gly-Arg-AMC. In a few lines:
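Recombinant human DPPI in MES buffer pH 6.0 (5 mM DTT, 0.1% BSA); fluorogenic substrate at 50 μM final, 30 min at room temperature, stopped with 1 μM Gly-Phe-DMK. Background-subtracted fluorescence expressed as percent of vehicle control; IC50 derived.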

The nature of series [2]: Determination of metabolic stability with human liver microsomes. The following applies: pooled human liver microsomes; for half-life at 1 μM: human, pH 7.6. A general note: Liver microsomes are vesicles of endoplasmic reticulum, rich in cytochrome P450 enzymes.
Series [3] has as its target recombinant human Cathepsin K (Homo sapiens (Human), UniProt P43235). Description: Inhibition of human Cathepsin K. The class given is biochemical. The following applies: substrate Z-Gly-Pro-Arg-AMC. The essentials:
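Proenzyme activated in pH 3.5 sodium acetate for 30 min at room temperature. Enzyme (2 ng/μL final) preincubated 10 min with compound (0.1 nM–100 μM, 1% DMSO) in pH 5.5 acetate/EDTA/L-cysteine buffer, then reacted 60 min at room temperature with Z-Gly-Pro-Arg-AMC. Stopped with 1 μM E64; fluorescence Ex 360/Em 460 nm; IC50 from background-subtracted percent of vehicle control.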

recombinant human DPPI (Cathepsin C), sequence (P53634 231-394): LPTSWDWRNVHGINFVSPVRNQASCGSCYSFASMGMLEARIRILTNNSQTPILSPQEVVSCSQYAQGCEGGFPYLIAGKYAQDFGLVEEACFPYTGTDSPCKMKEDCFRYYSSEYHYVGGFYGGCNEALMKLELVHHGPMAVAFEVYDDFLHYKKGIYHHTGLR
recombinant human DPPI (Cathepsin C), sequence (P53634 395-463): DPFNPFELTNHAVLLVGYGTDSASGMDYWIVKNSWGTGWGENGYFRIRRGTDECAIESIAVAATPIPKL
recombinant human DPPI (Cathepsin C), sequence (P53634 25-134): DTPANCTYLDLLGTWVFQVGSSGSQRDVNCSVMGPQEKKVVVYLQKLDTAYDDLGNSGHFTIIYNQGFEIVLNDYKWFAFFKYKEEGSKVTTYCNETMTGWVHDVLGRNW
recombinant human Cathepsin K, sequence (P43235 115-329): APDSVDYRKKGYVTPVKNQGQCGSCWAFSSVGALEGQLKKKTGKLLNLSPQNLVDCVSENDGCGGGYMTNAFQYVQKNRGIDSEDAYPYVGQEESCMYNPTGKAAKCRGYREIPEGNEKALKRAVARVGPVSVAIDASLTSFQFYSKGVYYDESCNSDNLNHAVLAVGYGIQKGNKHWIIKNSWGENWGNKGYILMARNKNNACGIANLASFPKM

With `N#C[C@H](Cc1ccc(-c2ccc3c(c2)C(=O)NC3)cc1F)NC(=O)[C@H]1N[C@@H]2CC[C@H]1C2` [Example 95], the IC50 in series [1] is 19.2 nM; in series [3], 3600 nM. This compound also gave a half-life at 1 μM in series [2] greater than 2.17 h.
For `N#CC(Cc1ccc(-c2cnn(C3CCOCC3)c2)cc1F)NC(=O)[C@H]1N[C@@H]2CC[C@H]1C2` (stereo partly drawn) [Example 116] the same measures were 39.1 nM, 7700 nM and greater than 2.17 h.
On the same counts, the results for `CC(=O)c1cn(-c2ccc(C[C@@H](C#N)NC(=O)[C@H]3N[C@@H]4CC[C@H]3C4)c(F)c2)nn1` [Example 90] are 16 nM, 3500 nM and greater than 2.17 h.
On the same counts, the results for `N#CC(Cc1ccc2c(cnc3cc(F)ccc32)c1)NC(=O)[C@H]1N[C@@H]2CC[C@H]1C2` (stereo partly drawn) [Example 315, (1S,2S,4R)—N-[1-cyano-2-(3-fluorophenanthridin-8-yl)ethyl]-3-azabicyclo[2.2.1]heptane-2-carboxamide] are 13.5 nM, greater than 30000 nM and 1.53 h.
As to `CS(=O)(=O)c1cc(OCC(F)(F)F)cc(-c2ccc(C[C@@H](C#N)NC(=O)[C@H]3N[C@@H]4CC[C@H]3C4)c(F)c2)c1` [Example 276], the IC50 in series [1] amounted to 14.1 nM; in series [3], 5500 nM. In addition, the “In vitro stability in human liver microsome incubations t½” value in series [2] (1 μM test compound, 37° C., NADPH) is 2.17 h.
Take `N#C[C@H](Cc1ccc(-c2csc(C(N)=O)c2)cc1F)NC(=O)[C@H]1N[C@@H]2CC[C@H]1C2` [Example 157]: the IC50 in series [1] was found to be 0.9 nM; in series [3], 7400 nM. Moreover, the half-life at 1 μM in series [2] was greater than 2.17 h.
For `CN(C)CC1CCCN(c2ccc(C[C@@H](C#N)NC(=O)[C@H]3N[C@@H]4CC[C@H]3C4)c(F)c2)C1` (stereo partly drawn) [Example 345] the same measures were 18.4 nM, 9200 nM and greater than 2.17 h.
On the same counts, the results for `N#C[C@H](Cc1ccc(-c2cnn(C[C@@H]3CCCO3)c2)cc1F)NC(=O)[C@H]1N[C@@H]2CC[C@H]1C2` [Example 261] are 4.2 nM, 3800 nM and greater than 2.17 h.
For `CS(=O)(=O)c1ccc(-c2ccc(C[C@@H](C#N)NC(=O)[C@H]3N[C@@H]4CC[C@H]3C4)c(F)c2)cc1` [Example 16] the same measures were 2.6 nM, 2100 nM and greater than 2.17 h.
As for `N#C[C@H](Cc1ccc(-c2cc(-c3ccccc3)no2)cc1F)NC(=O)[C@H]1N[C@@H]2CC[C@H]1C2` [Example 96], the IC50 came out at 19.8 nM in series [1] and 5500 nM in series [3]. Further, the half-life at 1 μM in series [2] was determined as 1.37 h.
On the same counts, the results for `N#C[C@H](Cc1ccc(N2CCC(N3CCOCC3)CC2)cc1F)NC(=O)[C@H]1N[C@@H]2CC[C@H]1C2` [Example 193] are 12.3 nM, 2200 nM and greater than 2.17 h.
On the same counts, the results for `CN1CCN(C(=O)c2cccc(-c3ccc(C[C@@H](C#N)NC(=O)[C@H]4N[C@@H]5CC[C@H]4C5)c(F)c3)c2)CC1` [Example 245] are 5.9 nM, 1200 nM and greater than 2.17 h.
On to `CN1CCN(C(=O)c2ccc(-c3ccc(C[C@@H](C#N)NC(=O)[C@H]4N[C@@H]5CC[C@H]4C5)c(F)c3)cc2)CC1` [Example 185], for which the results for the IC50 in series [1] and in series [3] were 9 nM and 1700 nM, respectively. The half-life at 1 μM in series [2] was greater than 2.17 h.
On to `CN1CCC2(C=C(c3ccc(C[C@@H](C#N)NC(=O)[C@H]4N[C@@H]5CC[C@H]4C5)c(F)c3)C2)CC1` [Example 359], for which the IC50 turned out to be 8.8 nM in series [1] and 6300 nM in series [3]. In addition, in series [2], the half-life at 1 μM is greater than 2.17 h.
As to `N#CC(Cc1ccc(-c2ncc(Cl)cn2)cc1F)NC(=O)[C@H]1N[C@@H]2CC[C@H]1C2` (stereo partly drawn) [Example 98], the IC50 in series [1] was found to be 20.3 nM; in series [3], 8400 nM. The half-life at 1 μM in series [2] was greater than 2.17 h.
For `CS(=O)(=O)c1ccc(-c2ccc(C[C@@H](C#N)NC(=O)[C@H]3N[C@@H]4CC[C@H]3C4)c(F)c2)c(F)c1` [Example 86] the same measures were 14.1 nM, 6800 nM and greater than 2.17 h.
For `N#C[C@H](Cc1ccc(-n2cc(-c3ccc4[nH]ccc4c3)nn2)cc1F)NC(=O)[C@H]1N[C@@H]2CC[C@H]1C2` [Example 5, (1S,2S,4R)—N-[(1S)-1-cyano-2-[2-fluoro-4-[4-(1H-indol-5-yl)triazol-1-yl]phenyl]ethyl]-3-azabicyclo[2.2.1]heptane-2-carboxamide] the same measures were 4 nM, 2600 nM and 1.53 h.
For `COc1ccc(-c2cn(-c3ccc(C[C@@H](C#N)NC(=O)[C@H]4N[C@@H]5CC[C@H]4C5)c(F)c3)nn2)cc1OC` [Example 77] the same measures were 11.9 nM, 5300 nM and greater than 2.17 h.
Regarding `N#C[C@H](Cc1ccc(-c2csc(C(=O)N3CCOCC3)c2)cc1F)NC(=O)[C@H]1N[C@@H]2CC[C@H]1C2` [Example 230], the results for the IC50 in series [1] and in series [3] were 1.8 nM and 5900 nM, respectively. In addition, the half-life at 1 μM in series [2] was greater than 2.17 h.
On the same counts, the results for `CN1C(=O)Cc2ccc(-c3ccc(C[C@@H](C#N)NC(=O)[C@H]4N[C@@H]5CC[C@H]4C5)c(F)c3)cc21` [Example 2, (1S,2S,4R)—N-[(1S)-1-cyano-2-[2-fluoro-4-(1-methyl-2-oxo-indolin-6-yl)phenyl]ethyl]-3-azabicyclo[2.2.1]heptane-2-carboxamide] are 2 nM, 2800 nM and greater than 2.08 h.
Consider `N#C[C@H](Cc1ccc(-c2ccc(S(N)(=O)=O)cc2)cc1F)NC(=O)[C@H]1N[C@H]2C[C@@H]1[C@@H]1C[C@@H]12` [Example 136], for which the values for the half-inhibitory concentration (IC50) in series [1] and in series [3] were 10.2 nM and 6200 nM, respectively. In series [2], this compound returned a half-life at 1 μM greater than 2.17 h.
For `CS(=O)(=O)c1cc(-c2cc(F)c(CC(C#N)NC(=O)[C@H]3N[C@@H]4CC[C@H]3C4)c(F)c2)ccc1C#N` (stereo partly drawn) [Example 52] the same measures were 7.6 nM, 17000 nM and greater than 2.17 h.
On the same counts, the results for `CS(C)(=O)=Nc1cccc(-c2ccc(C[C@@H](C#N)NC(=O)[C@H]3N[C@@H]4CC[C@H]3C4)c(F)c2)c1` [Example 259] are 6 nM, 3700 nM and greater than 2.17 h.
For `CS(=O)(=O)c1cc(-c2ccc(C[C@@H](C#N)NC(=O)[C@H]3N[C@@H]4CC[C@H]3C4)c(F)c2)ccc1F` [Example 152] the same measures were 2.1 nM, 6100 nM and greater than 2.17 h.
`CO[C@@H]1C[C@@H]2CN(c3ccc(C[C@@H](C#N)NC(=O)[C@H]4N[C@@H]5CC[C@H]4C5)c(F)c3)CCN2C1` [Example 269]: the IC50 in series [1] was 9.4 nM; in series [3], 1700 nM. Further, the half-life at 1 μM in series [2] is greater than 2.17 h.
As to `CS(=O)(=O)c1cccc(-c2ccc(CC(C#N)NC(=O)[C@H]3N[C@@H]4CC[C@H]3C4)c(F)c2)c1` (stereo partly drawn) [Example 88], the IC50 in series [1] turned out to be 15.2 nM; in series [3], 8800 nM. The half-life at 1 μM in series [2] was greater than 2.17 h.
For `N#C[C@H](Cc1ccc(-c2cc(C(N)=O)co2)cc1F)NC(=O)[C@H]1N[C@@H]2CC[C@H]1C2` [Example 239] the same measures were 3.4 nM, 2000 nM and greater than 2.17 h.
On the same counts, the results for `CS(=O)(=O)c1cc(-c2ccc(CC(C#N)NC(=O)[C@H]3N[C@@H]4CC[C@H]3C4)c(F)c2)ccc1C#N` (stereo partly drawn) [Example 19] are 2.8 nM, 5400 nM and greater than 2.17 h.
On the same counts, the results for `N#CC(Cc1ccc2c(c1)c(=O)[nH]c1c(F)c(F)c(F)cc12)NC(=O)[C@H]1N[C@@H]2CC[C@H]1C2` (stereo partly drawn) [Example 296] are 2.9 nM, greater than 30000 nM and greater than 2.17 h.
With `N#C[C@H](Cc1ccc(-c2ccc3c(c2)NC(=O)C3)cc1F)NC(=O)[C@H]1N[C@@H]2CC[C@H]1C2` [Example 29], the IC50 in series [1] worked out at 4.2 nM; in series [3], 1400 nM. Besides, the half-life at 1 μM in series [2] was greater than 2.17 h.
As for `N#CC(Cc1ccc2c(c1)c(=O)[nH]c1c(F)c(F)ccc12)NC(=O)[C@H]1N[C@@H]2CC[C@H]1C2` (stereo partly drawn) [Example 300], the figures for the IC50 in series [1] and in series [3] were 3.8 nM and 23100 nM, respectively. In series [2], this compound showed a half-life at 1 μM greater than 2.17 h.
On the same counts, the results for `CCn1nccc1-c1ccc(C[C@@H](C#N)NC(=O)[C@H]2N[C@@H]3CC[C@H]2C3)c(F)c1` [Example 110] are 28.6 nM, 9800 nM and greater than 2.17 h.
On the same counts, the results for `N#C[C@H](Cc1ccc(-c2cccc(S(N)(=O)=O)c2)cc1F)NC(=O)[C@H]1N[C@H]2C[C@@H]1[C@@H]1C[C@@H]12` [Example 143] are 6.7 nM, 5100 nM and greater than 2.17 h.
With `N#C[C@H](Cc1ccc(-c2ccc(C(N)=O)s2)cc1F)NC(=O)[C@H]1N[C@@H]2CC[C@H]1C2` [Example 236], the values for the IC50 in series [1] and in series [3] were 1.6 nM and 1700 nM, respectively. For the same compound, in series [2], the half-life at 1 μM is greater than 2.17 h.
For `N#C[C@H](Cc1ccc(-c2cnn(CC3CCOCC3)c2)cc1F)NC(=O)[C@H]1N[C@@H]2CC[C@H]1C2` [Example 57] the same measures were 8.3 nM, 2300 nM and 1.58 h.
